# Measurements: ChEMBL document CHEMBL1131397, “Synthesis and immunosuppressive activity of ruthenium complexes” (Bioorg Med Chem Lett, 1998)
# Species: Homo sapiens
# Assay: Immunosuppressive activity was evaluated by the inhibition of human T-lymphocyte proliferation
# Format: functional
compound,measurement,setting,value
CO[C@H]1C[C@@H]2CC[C@@H](C)[C@@](O)(O2)C(=O)C(=O)N2CCCC[C@H]2C(=O)O[C@H]([C@H](C)C[C@@H]2CC[C@@H](O)[C@H](OC)C2)CC(=O)[C@H](C)/C=C(\C)[C@@H](O)[C@@H](OC)C(=O)[C@H](C)C[C@H](C)/C=C/C=C/C=C/1C [SIROLIMUS],IC50,Homo sapiens,0.5 nM
[Ru(imidazolidine)6](CF3SO3)2,IC50,,4 nM
[Ru(imidazolidine)6]Cl2,IC50,,5 nM
